Test results reported in patent US8952158B2, “Tricyclic compound and use thereof” (Ono Pharmaceutical Co., Ltd., priority 2004, dated 2015).

What was measured:
Wistar male rat [1] = test: Competition experiment of MBR ligand (psychological stressor, number of dejection); format: in vivo
Method: Using a Wistar male rat, psychological stressor similar to that in Biological Example 2 described above was loaded. Each treatment group was set as follows: a medium was intravenously administered (treatment group 1), the compound of the present invention (the compound of Example 38) was intravenously administered at a dose of 0.1 mg/kg (treatment group 2), an MBR selective agonist (CB34) was intravenously administered at a dose of 1 mg/kg (treatment group 3), or after the compound of the present invention (the compound of Example 38) was intravenously administered at a dose of 0.1 mg/kg, an MBR selective agonist was intravenously administered at a dose of 0.1 mg/kg (treatment group 4). In each group, stressor loading was initiated 10 minutes after administration, and the number of dejection was counted one hour later (10 animals in each group).

[2] = system: male Sprague-Dawley (SD) rat; test: Study on antistress effect (2): physical (restraint) stressor, number of dejection; format: in vivo; conditions: oral 1 mg/kg, 30 min before restraint; 60 minutes after initiation of stressor loading
Method: Physical stressor was loaded using a male Sprague-Dawley (SD) rat (CHARLES RIVER LABORATORIES JAPAN, INC., 7 week old at being used) (Gastroenterology 1988; 94: pp. 611-622; Jpn. J. Phrmacol. 1998; 77: pp. 211-217). Thirty minutes after a medium (0.5% Tween 80 physiological saline) or the compound of the present invention (the compound of Example 38) was orally administered at a dose of 1 mg/kg, stressor loading was initiated by restraining both anterior branches of the rat with a binding band (Marvel Ltd.). Evaluation was performed by measuring the number of dejection 30 and 60 minutes after the initiation of stressor loading (15 animals in each group).

MBR = biological target: T1, MBR (Rattus norvegicus, UniProt P16257); test: Receptor binding experiment ([3H]PK11195 competition); conditions: [3H]PK11195, rat membrana cerebri specimen; Cheng and Prusoff
T1 construct: A Wistar male rat was decapitated and the whole brain was extirpated, and then the cerebellum was removed; from tissue; host or cells: Wistar male rat brain (cerebellum removed), crude membrane preparation
Method: Affinity of the compound of the present invention for MBR was measured using a rat membrana cerebri specimen. The measuring method of the present invention has improved measurement accuracy and measurement sensitivity so as to evaluate the compound of the present invention as follows. A Wistar male rat was decapitated and the whole brain was extirpated, and then the cerebellum was removed. For the rat membrana cerebri specimen used in the binding experiment, 50 mmol/L of an ice-cold Iris-hydrochloric acid buffer (pH 7.4) was added and it was homogenized and centrifuged. After the resulting deposit was washed, it was resuspended to be prepared to about 1 mg/ml. The binding experiment was conducted using [^3H]PK11195 as an MBR selective ligand.
In the case of calculating the all binding amount in a saturation experiment, the membrane specimen, [^3H]PK11195 at several concentrations, dimethyl sulfoxide (DMSO) in a final concentration of 0.5 vol %, and 50 mmol/L of a tris-hydrochloric acid buffer (pH 7.4) were mixed (all amount 200 μl), followed by incubation at room temperature for one hour. In the case of calculating the nonspecific binding amount, […] in a final concentration of 20 ptrnol/L was added instead of DMSO, followed by incubation for one hour. […] After the filter was dried, radioactivity was measured by a liquid scintillation counter. […]

Wistar male rat [3] = test: Study on antistress effect (1): psychological stressor, number of dejection; format: in vivo; conditions: 30 min before stressor, counted one hour later
Method: Psychological stressor was loaded using a Wistar male rat (Brain Res. 1994; 641: pp. 21-28). Water was accumulated by the depth of about 10 cm in a container having a platform in the center. Thirty-minutes after a medium or the compound of the present invention (the compound of Example 38) was intravenously administered at a dose of 0.01 mg/kg or orally administered at a dose of 1 mg/kg, stressor loading was initiated, and one hour later, the number of dejection was counted (10 animals in each group). The rat administered the compound of the present invention and the rat to which the stress or was not loaded had little dejection after one hour.

Wistar male rat [4] = test: Inhibitory action on abdominal pain in RCS loading model; format: in vivo; conditions: oral 1 mg/kg twice a day, RCS 4 days, balloon 0-1.2 mL, versus medium treatment group (FIG. 1)
From the text: A Wistar male rat (6 week old at being received) was anesthetized with pentobarbital sodium (Kyoritsu Seiyaku Corporation), its abdomen was incised and the abdominal muscle was exposed, and then Force Transducer (F-12IS-SL (STAR MEDICAL Ltd.)) was fitted. Penicillin was intramuscular administered after the operation, and a recuperative period of 5 days was set.
During from AM 9:00 to PM 5:00 on a 1st day of the initiation of stress loading, the feeding environment temperature was alternately changed to 24° C. and 2° C. in an hour interval, and during from PM 5:00 to AM 9:00 in the next morning, the rat was fed under the environment of 2° C. […]
After RCS was loaded for 4 days, abdominal pain evaluation was performed on a 5th day (10 to 12 animals in each group). […] Contraction of abdominal muscle for extension stimulation in each balloon liquid amount was recorded using the Chart software (Chart v5.0.2. (ADInstruments Inc.)) by passing the signal from the pressure transducer amplified by the amplifier (Windo Gragf (GOULD Inc.)) through the data collection system (PowerLab (ADInstruments Inc.)). During 5 minutes in which balloon extension stimulation was loaded, the number of signals from the pressure transducer in 3 minutes was counted, and the obtained number was regarded as the number of abdominal muscle contraction and set as the index of abdominal pain.

[5] = Oral absorbability of rat; format: in vivo; conditions: plasma; fasted SD male rat; oral 1 mg/kg vs intravenous 0.1 mg/kg; from AUC; read-out: Bioavailability (B.A.)
Method: Using a fasted SD male rat (CHARLES RIVER LABORATORIES JAPAN, INC.), under the condition that the compound of the present invention (the compound of Example 38) was solubilized, the plasma concentration after administration in the tail vein at a dose of 0.1 mg/kg and the plasma concentration after gastric gavage administration at a dose of 1 mg/kg were measured. The blood was collected from a rat jugular vein under an unanesthetized condition 5, 15, and 30 minutes, and 1, 2, 3, 4, 6, and 8 hours after intravenous administration, and 15 and 30 minutes, and 1, 2, 3, 4, 6, and 8 hours after oral administration. Then the blood was centrifuged at 3000 rpm for 10 minutes and the supernatant was collected as plasma. The concentration of the compound in plasma was measured with LC/MS/MS (1100 HPLC System (Agilent Co. Ltd.), API 4000 (MDS SCIEX Ltd.)). From the obtained plasma concentration, an area under the curve (AUC, ngh/ml) and a maximum plasma concentration (Cmax, ng/mL) were calculated. In addition, Bioavailability (B.A.) of the compound of the present invention was calculated from AUC in oral administration and AUC in intravenous administration.

Row | Compound | the number of dejection: mean number (Wistar male rat [1]; treatment group 3: intravenous 1 mg/kg, stressor 10 min after administration, counted one hour later) | the number of dejection: mean number [2] | Ki (MBR) | the number of dejection: mean number (Wistar male rat [3]; intravenous administration 0.01 mg/kg) | the number of dejection: mean number (Wistar male rat [3]; oral administration 1 mg/kg) | the number of dejection: mean number (Wistar male rat [1]; treatment group 2: intravenous 0.1 mg/kg, stressor 10 min after administration, counted one hour later) | the number of dejection: mean number (Wistar male rat [1]; treatment group 4: Example 38 intravenous 0.1 mg/kg, then MBR selective agonist (CB34) intravenous 0.1 mg/kg) | number of abdominal muscle contraction (index of abdominal pain) (Wistar male rat [4]) | bioavailability [5]
1 | CCCN(CCC)C(=O)c1c(-c2ccc(Cl)cc2)nc2cc(Cl)cc(Cl)n12 [CB34, 5,7-dichloro-2-(4-chlorophenyl)-3-dipropylaminocarbonylimidazo[1,2-a]pyridine, reference compound] | 9.5 | – | – | – | – | – | – | – | –
2 | COc1cc(Cl)ccc1[C@H]1c2[nH]c3cccc(F)c3c2C2(CC2)CN1C(C)=O [Example 38, (1S)-2-acetyl-1-(4-chloro-2-methoxyphenyl)-5-fluoro-1,2,3,9-tetrahydrospiro[β-carboline-4,1′-cyclopropane]] | – | 7.5 | 0.08 nM | 8.2 | 6.2 | 7.3 | 10.1 | significantly inhibited | 86.9%
